≈ marks a conversion by molar mass, not a printed value. Calls of active or inactive are those of the source. The calls are words filed in the database; no cut-off is given here.
Legend:
[1] = tested on: Mycoplasmoides pneumoniae; assay: Antibacterial activity against Mycoplasma pneumoniae assessed as inhibition of bacterial growth; type: functional
[2] = tested on: Shigella dysenteriae; assay: Antibacterial activity against Shigella dysenteriae assessed as inhibition of bacterial growth; type: functional
[3] = tested on: Staphylococcus aureus; assay: Antibacterial activity against Methicillin-resistant Staphylococcus aureus BNCC 337371 assessed as inhibition of bacterial growth incubated for 24 hrs by microbroth two-fold dilution method; type: functional
[4] = tested on: Streptococcus agalactiae; assay: Antibacterial activity against Streptococcus agalactiae assessed as inhibition of bacterial growth incubated for 24 hrs by microbroth two-fold dilution method; type: functional
[5] = tested on: Streptococcus agalactiae; assay: Antibacterial activity against Streptococcus agalactiae assessed as bacterial growth by measuring optical density at 1 to 2 times MIC incubated for 12 hrs by real time growth curve analysis; type: functional
[6] = tested on: Staphylococcus aureus; assay: Antibacterial activity against Staphylococcus aureus assessed as inhibition of bacterial growth incubated for 24 hrs by microbroth two-fold dilution method; type: functional
[7] = tested on: Escherichia coli; assay: Antibacterial activity against Escherichia coli assessed as bacterial growth by measuring optical density at 1 to 2 times MIC incubated for 12 hrs by real time growth curve analysis; type: functional
[8] = tested on: Staphylococcus aureus; assay: Antibacterial activity against Staphylococcus aureus assessed as bacterial growth by measuring optical density incubated for 12 hrs by real time growth curve analysis; type: functional
[9] = tested on: Escherichia coli; assay: Antibacterial activity against Escherichia coli assessed as inhibition of bacterial growth incubated for 24 hrs by microbroth two-fold dilution method; type: functional
[10] = tested on: Staphylococcus aureus; assay: Antibacterial activity against Staphylococcus aureus assessed as diameter of the inhibition circle at 1 mg/ml incubated for 48 hrs; type: functional
[11] = tested on: Escherichia coli; assay: Antibacterial activity against Escherichia coli assessed as bacterial growth by measuring optical density at 0.5 times MIC incubated for 12 hrs by real time growth curve analysis; type: functional
[12] = tested on: Streptococcus agalactiae; assay: Antibacterial activity against Streptococcus agalactiae assessed as bacterial growth by measuring optical density at 0.5 times MIC incubated for 12 hrs by real time growth curve analysis; type: functional
[13] = tested on: Staphylococcus aureus; assay: Bactericidal activity against Staphylococcus aureus assessed as bacterial killing at 1 to 4 times MIC incubated up to 24 hrs by time kill assay; type: functional
[14] = tested on: HEK-293T; assay: Cytotoxicity against human HEK293T cells assessed as cell viability incubated for 16 hrs by MTT assay; type: toxicity, cell-based
[15] = tested on: Staphylococcus aureus; assay: Bactericidal activity against Staphylococcus aureus assessed as bacterial killing at 32 times MIC incubated for 12 hrs by time kill assay; type: functional
[16] = tested on: L02; assay: Cytotoxicity against human L02 cells assessed as cell viability incubated for 16 hrs by MTT assay; type: toxicity, cell-based; settings: l02, 16 h
[17] = tested on: Staphylococcus aureus; assay: Bactericidal activity against Staphylococcus aureus assessed as bacterial killing at 16 times MIC incubated for 12 hrs by time kill assay; type: functional
[18] = tested on: Staphylococcus aureus; assay: Bactericidal activity against Staphylococcus aureus assessed as bacterial killing at 32 times MIC incubated for 9 hrs by time kill assay; type: functional
[19] = tested on: Staphylococcus aureus; assay: Bactericidal activity against Staphylococcus aureus assessed as bacterial killing at 8 times MIC incubated up to 24 hrs by time kill assay; type: functional, organism-based

SMILES | MIC [1] | MIC [2] | MIC [3] | MIC [4] | OD [5] | MIC [6] | OD [7] | OD [8] | MIC [9] | inhibition zone diameter [10] | OD [11] | OD [12] | Activity [13] | Activity [14] | Activity [15] | Activity [16] | Activity [17] | Activity [18] | Activity [19]
C=C[C@]1(C)C[C@@H](OC(=O)CSC(C)(C)CNC(=O)[C@H](N)C(C)C)[C@]2(C)[C@H](C)CC[C@]3(CCC(=O)[C@H]32)[C@@H](C)[C@@H]1O [VALNEMULIN] | 0.03 µg/mL (≈ 0.0531 µM) | 0.03 µg/mL (≈ 0.0531 µM) |  |  |  |  |  |  |  |  |  |  |  |  |  |  |  |  | 
C=C[C@]1(C)C[C@@H](OC(=O)CSc2nc(N3CCNCC3)c3ccsc3n2)[C@]2(C)[C@H](C)CC[C@]3(CCC(=O)[C@H]32)[C@@H](C)[C@@H]1O |  |  | 0.122 µg/mL (≈ 0.199 µM) | 0.0153 µg/mL (≈ 0.025 µM) | 0.1 | 0.0076 µg/mL (≈ 0.0124 µM) | 0.1 | <0.3 | 0.976 µg/mL (≈ 1.59 µM) | 26.8 mm | <0.3 | <0.3 |  |  |  |  |  |  | 
C=C[C@]1(C)C[C@@H](OC(=O)CSc2nc(N3CCN(CC)CC3)c3ccsc3n2)[C@]2(C)[C@H](C)CC[C@]3(CCC(=O)[C@H]32)[C@@H](C)[C@@H]1O |  |  | 0.0076 µg/mL (≈ 0.0119 µM) | 0.122 µg/mL (≈ 0.191 µM) | 0.1 | 0.0019 µg/mL (≈ 0.00296 µM) | 0.1 | <0.2 | 0.122 µg/mL (≈ 0.191 µM) | 33.5 mm | <0.3 | <0.3 | 99.9% | Non-Toxic | 99.9% | Non-Toxic | 99.9% | 99.9% | 
C=C[C@]1(C)C[C@@H](OC(=O)CSCCN(CC)CC)[C@]2(C)[C@H](C)CC[C@]3(CCC(=O)[C@H]32)[C@@H](C)[C@@H]1O [TIAMULIN] |  |  | 0.488 µg/mL (≈ 0.989 µM) | 0.122 µg/mL (≈ 0.247 µM) |  | 0.488 µg/mL (≈ 0.989 µM) |  |  | 15.6 µg/mL (≈ 31.6 µM) | 25.2 mm |  |  |  |  |  |  |  |  | Active
C=C[C@]1(C)C[C@@H](OC(=O)CSc2nc(NCCO)c3ccsc3n2)[C@]2(C)[C@H](C)CC[C@]3(CCC(=O)[C@H]32)[C@@H](C)[C@@H]1O |  |  | 0.0019 µg/mL (≈ 0.00323 µM) | 0.0019 µg/mL (≈ 0.00323 µM) | 0.1 | 0.0019 µg/mL (≈ 0.00323 µM) | 0.1 | <0.2 | 0.0076 µg/mL (≈ 0.0129 µM) | 33 mm | <0.3 | <0.3 | 99.9% | Non-Toxic |  | Non-Toxic |  |  | 

Source: ChEMBL document CHEMBL5120839, “Design, synthesis and antibacterial activity of novel pleuromutilin derivatives with thieno[2,3-d]pyrimidine substitution” (Eur J Med Chem, 2022)
